Data published in patent US5001158A, “Nitrosoureas compounds preparation thereof and utilization thereof in anticancerous” (Centre National de la Recherche Scientifique, priority 1990, dated 1991).

Columns and labels:
[1] = Pharmacokinetic comparison of mixture A1 A2 with CNCC, all animal species; assay type: in vivo, mice, rats and rabbits; details: p.o.
Protocol: (§1) The plasma absorption and clearance kinetics of the products A1 and A2 according to the invention were studied on different animal species after oral administration. A mixture A1 A2 in the proportions 70%/30% was used so as to be able to make a comparison with CNCC. The mixture A1 A2 and the CNCC were administered at equivalent doses and the plasma concentrations of A1 and A2 were measured as a function of time. cl (a) Experimental protocol
(§2) A solution of the mixture A1 A2 in distilled water is administered by stomach tube at a dose of 574 mg/m^2. A suspension of CNCC in olive oil is administered at a dose of 500 mg/m^2, also by stomach tube.
(§3) The blood, taken by cardiac puncture, is centrifuged rapidly at 4° C. The plasma (1 ml) is deposited on a cartridge of Extrelut® and extraction is carried out with 6 ml of methylene chloride. After evaporation, the dry extract is taken up in 150 μl of methylene chloride for chromatographic analysis.
(§4) Analysis of the plasma extracts for measuring the concentrations of A1 and A2 was performed by high performance liquid chromatography using the following technology:
The plasma concentrations of A1 and A2 after oral administration of either the mixture A1 A2 or CNCC to mice, rats and rabbits are reported in Table V.

[2] = Plasma concentrations of A1 and A2 after oral administration, mice; assay type: in vivo; details: mouse, n = 10; for concentration at 1.5 h: 1 H 30 MIN; for concentration: 3 H; for concentration at 4.5 h: 4 H 30 MIN; for concentration at 0.25 h: 15 MIN; for concentration at 0.5 h: 30 MIN; for concentration at 0.75 h: 45 MIN
Protocol: as §1, §2, §3, §4
(§5) Detector: Pye Unicam spectrophotometer (Philips)λ250 nm.
(§6) Elution carried out by means of a linear gradient ranging from methylene chloride 99.6%/ethanol 0.4% to methylene chloride 95%/ethanol 5% in 15 minutes

[3] = Plasma concentrations of A1 and A2 after oral administration, rats; assay type: in vivo; details: rat, n = 5; for concentration at 1.5 h: 1 H 30 MIN; for concentration: 3 H; for concentration at 0.25 h: 15 MIN; for concentration at 0.5 h: 30 MIN; for concentration at 0.75 h: 45 MIN
Protocol: as §1, §2, §3, §4, §5, §6

leukemia L 1210 = assay: Antitumoral activity of A1 and A2 on leukemia L 1210 grafted i.p. in mice (ICIG); assay type: in vivo, mice (B6 D2 F1 OLA)
Protocol: This activity was also studied on mice carrying leukemia L 1210 grafted i.p. This experimental tumor is the one most frequently used in the primary screening of cytostatic drugs.
These tests were conducted in parallel in two laboratories: at Unit 71 of the Institut National de la Sante et de la Recberche Mediecale (INSERM), ClermontFerrand, and at the Institut de Cancerologie et d' Immunogenetique (ICIG), Villejuif.
On day D:0, three-month-old male B6 D2 F1 mice received 10^5 cells of the leukemia strain L 1210 by intraperitoneal administration. The animals are divided up into groups of 8 to 10 animals for the control groups and 6 to 8 animals for the treated groups. On days D:1, D:5 and D:9, the animals receive the treatment at different doses by intraperitoneal or intravenous administration. The CNCC is administered as a suspension in olive oil. The products according to the invention are administered in physiological serum. The mortality is recorded every day. The survival median was determined for the treated animals and the control animals. The results are considered to be positive if the index I= [formula] is greater than 125.
The value .infin. means that 50% to 100% of the animals have survived to day D:90.
The cytostatic activity oi A1 and A2 on leukemia L 1210 was evaluated on B6 D2 F1 OLA mice at ICIG.
ICIG also studied the antitumoral activity of each isomer A1 and A2, separately administered intravenously, on leukemia L 1210. […] Comparison of the active doses with those of CNCC is impossible because of the insolubility of CNCC, as mentioned previously.

[4] = Plasma concentrations of A1 and A2 after oral administration, rabbits; assay type: in vivo; details: rabbit, n = 5; for concentration at 1.5 h: 1 H 30 MIN; for concentration: 3 H; for concentration at 4.5 h: 4 H 30 MIN; for concentration at 0.25 h: 15 MIN; for concentration at 0.5 h: 30 MIN; for concentration at 0.75 h: 45 MIN
Protocol: as §1, §2, §3, §4, §5, §6

[5] = after mixture A1 A2 574 mg/m^2 p.o.

In the case of `C[S+]([O-])CCN(N=O)C(=O)NCCCl` (centres unmarked) [Compound A1], the “bioavailability compared with CNCC (in words)” value [1] is reported as “greater than that of CNCC”, the “plasma concentrations after A1 A2 compared with after CNCC (in words)” value ([1]; equivalent doses, whatever the animal species) is reported as “much higher” and the concentration at 1.5 h ([2]; after CNCC 500 mg/m^2 p.o.) is reported as 26.2 µM. It also gave a concentration at 1 h ([2]; after CNCC 500 mg/m^2 p.o.) of 37.1 µM, a concentration at 2 h ([2]; after CNCC 500 mg/m^2 p.o.) of 20.2 µM and a concentration ([2]; after CNCC 500 mg/m^2 p.o.) of 11 µM. For the same molecule, the concentration at 4.5 h ([2]; after CNCC 500 mg/m^2 p.o.) was 6.5 µM, the concentration at 5 min ([2]; after CNCC 500 mg/m^2 p.o.) was 13.7 µM and the concentration at 0.25 h ([2]; after CNCC 500 mg/m^2 p.o.) was 34.2 µM. For the same molecule, the concentration at 0.5 h ([2]; after CNCC 500 mg/m^2 p.o.) was 71.4 µM, the concentration at 0.75 h ([2]; after CNCC 500 mg/m^2 p.o.) was 32.8 µM and the concentration at 1.5 h [2, 5] was 35.4 µM. It also gave a concentration at 1 h [2, 5] of 88 µM, a concentration at 2 h [2, 5] of 23.3 µM and a concentration [2, 5] of 10.1 µM. It also gave a concentration at 4.5 h [2, 5] of 4.3 µM, a concentration at 5 min [2, 5] of 208 µM and a concentration at 0.25 h [2, 5] of 206 µM. For the same molecule, the concentration at 0.5 h [2, 5] was 177 µM, the concentration at 0.75 h [2, 5] was 124 µM and the concentration at 1.5 h ([3]; after CNCC 500 mg/m^2 p.o.) was 20.3 µM. It also gave a concentration at 1 h ([3]; after CNCC 500 mg/m^2 p.o.) of 18.4 µM, a concentration at 2 h ([3]; after CNCC 500 mg/m^2 p.o.) of 12.7 µM and a concentration ([3]; after CNCC 500 mg/m^2 p.o.) of 11.1 µM. The concentration at 4.5 h ([3]; after CNCC 500 mg/m^2 p.o., 4 H 30 MIN) was 3.9 µM, the concentration at 5 min ([3]; after CNCC 500 mg/m^2 p.o.) was 2.8 µM and the concentration at 0.25 h ([3]; after CNCC 500 mg/m^2 p.o.) was 8 µM. The concentration at 0.5 h ([3]; after CNCC 500 mg/m^2 p.o.) was 12 µM, the concentration at 0.75 h ([3]; after CNCC 500 mg/m^2 p.o.) was 14.8 µM and the concentration at 1.5 h [3, 5] was 29.2 µM. For the same molecule, the concentration at 1 h [3, 5] was 32.9 µM, the concentration at 2 h [3, 5] was 15.7 µM and the concentration [3, 5] was 7.3 µM. The concentration at 5 min [3, 5] was 22.3 µM, the concentration at 0.25 h [3, 5] was 42.4 µM and the concentration at 0.5 h [3, 5] was 52.9 µM. For the same molecule, the concentration at 0.75 h [3, 5] was 33.9 µM, the “T/C × 100 (cell: toxic)” value (leukemia L 1210; 60 mg/kg i.v.) was “toxic” and the “antitumoral activity (in words)” value (leukemia L 1210; i.v., isomers separately) was “low activity”. For the same molecule, the concentration at 1.5 h ([4]; after CNCC 500 mg/m^2 p.o.) was 8.6 µM, the concentration at 2 h ([4]; after CNCC 500 mg/m^2 p.o.) was 7.4 µM and the concentration ([4]; after CNCC 500 mg/m^2 p.o.) was 4.7 µM. The concentration at 4.5 h ([4]; after CNCC 500 mg/m^2 p.o.) was 2.8 µM, the concentration at 5 min ([4]; after CNCC 500 mg/m^2 p.o.) was 5 µM and the concentration at 0.25 h ([4]; after CNCC 500 mg/m^2 p.o.) was 9.4 µM. The concentration at 0.5 h ([4]; after CNCC 500 mg/m^2 p.o.) was 10.6 µM, the concentration at 0.75 h ([4]; after CNCC 500 mg/m^2 p.o.) was 10 µM and the concentration at 1.5 h [4, 5] was 27 µM. The concentration at 1 h ([4]; after mixture A1 A2 574 mg/m^2 p.o., 1 H) was 39.4 µM, the concentration at 2 h [4, 5] was 19.4 µM and the concentration [4, 5] was 10.6 µM. For the same molecule, the concentration at 4.5 h [4, 5] was 3.8 µM, the concentration at 5 min [4, 5] was 26.7 µM and the concentration at 0.25 h [4, 5] was 28.5 µM. For the same molecule, the concentration at 0.5 h [4, 5] was 41 µM and the concentration at 0.75 h [4, 5] was 39.2 µM.
